This note sets out measurements from ChEMBL document CHEMBL3352697, “Molecular modeling studies of atorvastatin analogues as HMGR inhibitors using 3D-QSAR, molecular docking and molecular dynamics simulations” (Bioorg Med Chem Lett, 2014).

For the experiment, the target named is T1, 3-hydroxy-3-methylglutaryl-coenzyme A reductase (Homo sapiens, UniProt P04035).
T1 sequence (P04035 whole entry): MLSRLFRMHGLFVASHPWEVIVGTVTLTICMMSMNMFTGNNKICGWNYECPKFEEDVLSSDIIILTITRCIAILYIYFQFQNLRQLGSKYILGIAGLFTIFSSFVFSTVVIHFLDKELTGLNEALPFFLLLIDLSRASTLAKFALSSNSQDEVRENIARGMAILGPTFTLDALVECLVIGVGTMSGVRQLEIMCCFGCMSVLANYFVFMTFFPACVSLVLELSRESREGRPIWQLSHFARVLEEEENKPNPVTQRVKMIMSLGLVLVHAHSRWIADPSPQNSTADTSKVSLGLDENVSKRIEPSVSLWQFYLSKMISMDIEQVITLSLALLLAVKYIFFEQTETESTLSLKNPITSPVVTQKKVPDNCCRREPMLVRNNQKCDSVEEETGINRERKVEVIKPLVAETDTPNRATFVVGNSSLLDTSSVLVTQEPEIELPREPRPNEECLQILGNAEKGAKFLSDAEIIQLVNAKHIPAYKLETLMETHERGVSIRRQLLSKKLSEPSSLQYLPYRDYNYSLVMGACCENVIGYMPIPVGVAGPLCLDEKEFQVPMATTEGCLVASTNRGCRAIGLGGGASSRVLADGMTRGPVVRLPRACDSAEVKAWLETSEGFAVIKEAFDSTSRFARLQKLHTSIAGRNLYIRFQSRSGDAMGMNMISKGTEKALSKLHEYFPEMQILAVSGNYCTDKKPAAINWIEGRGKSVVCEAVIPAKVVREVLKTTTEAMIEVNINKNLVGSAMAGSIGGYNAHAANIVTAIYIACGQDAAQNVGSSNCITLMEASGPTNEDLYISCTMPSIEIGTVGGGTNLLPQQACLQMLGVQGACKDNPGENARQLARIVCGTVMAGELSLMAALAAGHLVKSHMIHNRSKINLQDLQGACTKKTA
In words: Inhibition of HMG-CoA reductase (unknown origin).

Regarding `CC(C)n1c(/C=C/[C@@H](O)C(F)(F)[C@@H](O)CC(=O)O)c(-c2ccc(F)cc2)c2ccccc21`, the IC50 worked out at 8.89 nM.

By IC50 is commonly meant the midpoint of a concentration-inhibition curve. A lower IC50 goes with greater potency in that assay.
